Read-outs that look alike come from different tables or passages of the source. Some results are limits rather than exact numbers.

By solubility is commonly meant the concentration that dissolves in the medium under given conditions.

Data set [1] can be described thus: Dynamic vapour sorption analysis (DVS): water sorption isotherms, hygroscopicity. It is filed as physicochemical. To be noted: 25 °C.
The conditions of data set [2]: for amount of "other unknown contaminants": change after 3 weeks of storage; for Known contaminant 2: RT 1.97 min; for water absorption: under various storage conditions, compared to the isethionate salt.
For data set [3] the following is noted: low relative humidity (10% RH); cited from earlier work.
The conditions of data set [4]: WO 2005/005426, in words; cited from earlier work.
[5] abbreviates: RT 1.70 min, 3 weeks, 25 °C 90% RH.
[6] abbreviates: RT 1.70 min, 3 weeks, 40 °C 70% RH.
[7] abbreviates: RT 2.56 min, 3 weeks, 25 °C 90% RH.
The mark [8] stands for this setting: RT 2.56 min, 3 weeks, 40 °C 70% RH.

As for palbociclib oxalate (1:1) salt, the “hygroscopicity (water sorption isotherms)” value (shortened to “hygroscopicity”) in data set [1] was “does not exhibit significant hygroscopicity”.
Still for that read-out and setting: for “palbociclib maleate (Form II) (1:1) salt” the value was “does not exhibit significant hygroscopicity”; for palbociclib napsylate (1:1) salt, “does not exhibit significant hygroscopicity”; for “palbociclib camsylate salt (1:1) [palbociclib camsylate (1:1) salt]”, “does not exhibit significant hygroscopicity”.
On the same count and under the same terms, for palbociclib maleate (Form I) (1:1) salt the value was “does not exhibit significant hygroscopicity”; for “palbociclib sulphate (C24H29N7O2 . ½ H2SO4 . 2 H2O) dihydrate salt”, “exhibits significant hygroscopicity”; for “palbociclib napsylate (1:2) dihydrate salt”, “exhibits significant hygroscopicity”.
Regarding `CC(=O)c1c(C)c2cnc(Nc3ccc(N4CCNCC4)cn3)nc2n(C2CCCC2)c1=O.O=S(=O)(O)CCO` [palbociclib isethionate Form B], in data set [2] (3 weeks, 25 °C 90% RH), the “Known contaminant 2 (RT 1.97 min)” value is reported as 0.09%, the Total contamination turned out to be 0.28%, the Total unknown contaminant is given as 0.19% and the “Unknown contaminant (RT 1.70 min)” value was 0.03%. Moreover, in data set [2] (3 weeks, 25 °C 90% RH), the “Unknown contaminant (RT 2.56 min)” value is 0.16% and the Water content came out at 0.97% m/m%. Besides, in data set [2] (3 weeks, 40 °C 70% RH), the “Known contaminant 2 (RT 1.97 min)” value is given as 0.10%, the Total contamination is on record as 0.27%, the Total unknown contaminant is listed as 0.17% and the “Unknown contaminant (RT 1.70 min)” value was 0.03%. Besides, in data set [2] (3 weeks, 40 °C 70% RH), the “Unknown contaminant (RT 2.56 min)” value is reported as 0.14% and the Water content turned out to be 0.76% m/m%. Further, in data set [2] (3 weeks, 70 °C), the “Known contaminant 2 (RT 1.97 min)” value was 0.09%, the Total contamination was found to be 0.28%, the Total unknown contaminant was determined as 0.19% and the “Unknown contaminant (RT 1.70 min)” value amounted to 0.03%. Also, in data set [2] (3 weeks, 70 °C), the “Unknown contaminant (RT 2.56 min)” value is 0.16% and the Water content was determined as 0.83% m/m%. Moreover, in data set [2] (Starting sample), the “Known contaminant 2 (RT 1.97 min)” value is reported as 0.09%, the Total contamination came out at 0.29%, the Total unknown contaminant turned out to be 0.20% and the “Unknown contaminant (RT 1.36 min)” value was 0.03%. In data set [2] (Starting sample), the “Unknown contaminant (RT 1.70 min)” value stood at 0.03%, the “Unknown contaminant (RT 2.56 min)” value stood at 0.14% and the Water content came to 0.36% m/m%.
With `CC(=O)c1c(C)c2cnc(Nc3ccc(N4CCNCC4)cn3)nc2n(C2CCCC2)c1=O` [palbociclib base Form A, 6-acetyl-8-cyclopentyl-5-methyl-2-{[5-(1-piperazinyl)-2-piridinyl]amino}pyrido[2,3-d]pyrimidin-7(8H)-one], in data set [2] (3 weeks, 25 °C 90% RH), the “Known contaminant 1 (RT 1.85 min)” value is recorded as 0.03%, the “Known contaminant 2 (RT 1.97 min)” value worked out at 0.04%, the Total contamination amounted to 0.23% and the Total unknown contaminant is recorded as 0.16%. In data set [2] (3 weeks, 25 °C 90% RH), the “Unknown contaminant (RT 1.70 min)” value is 0.04%, the “Unknown contaminant (RT 2.56 min)” value is 0.07%, the “Unknown contaminant (RT 3.04 min)” value was 0.05% and the Water content was 0.42% m/m%. Besides, in data set [2] (3 weeks, 40 °C 70% RH), the “Known contaminant 2 (RT 1.97 min)” value is given as 0.05%, the Total contamination came to 0.17%, the Total unknown contaminant stood at 0.13% and the “Unknown contaminant (RT 1.70 min)” value worked out at 0.05%. In addition, in data set [2] (3 weeks, 40 °C 70% RH), the “Unknown contaminant (RT 2.56 min)” value amounted to 0.04%, the “Unknown contaminant (RT 3.04 min)” value was 0.04% and the Water content was 0.41% m/m%. In data set [2] (3 weeks, 70 °C), the “Known contaminant 1 (RT 1.85 min)” value is recorded as 0.03%, the “Known contaminant 2 (RT 1.97 min)” value was 0.05%, the Total contamination is reported as 0.23% and the Total unknown contaminant is listed as 0.15%. In data set [2] (3 weeks, 70 °C), the “Unknown contaminant (RT 1.70 min)” value turned out to be 0.04%, the “Unknown contaminant (RT 2.56 min)” value is listed as 0.06%, the “Unknown contaminant (RT 3.04 min)” value stood at 0.05% and the Water content is 0.39% m/m%. In data set [2] (Starting sample), the “Known contaminant 2 (RT 1.97 min)” value was 0.04%, the Total contamination was 0.13%, the Total unknown contaminant stood at 0.09% and the “Unknown contaminant (RT 1.70 min)” value was 0.04%. Besides, in data set [2] (Starting sample), the “Unknown contaminant (RT 2.56 min)” value was 0.05% and the Water content was 0.23% m/m%. For the same compound, in data set [2] (in words), the “amount of "other unknown contaminants"” value was “significantly increases”.
Turning to “palbociclib citrate (1:1) monohydrate salt”, the “hygroscopicity” value in data set [1] is “exhibits significant hygroscopicity”.
As to “palbociclib hydrogen chloride (1:1) salt Form E”, the stability result in data set [2] (3 weeks of storage under various forced conditions, compared to palbociclib base Form A and isethionate salt Form B, in words) is reported as “more stable than the Form A base”. For the same compound, the Total contamination in data set [2] (3 weeks, 25 °C 90% RH) is reported as 0.22%; in data set [2] (3 weeks, 40 °C 70% RH), 0.19%; in data set [2] (3 weeks, 70 °C), 0.23%; in data set [2] (Starting sample), 0.20%. For the same compound, the Total unknown contaminant in data set [2] (3 weeks, 25 °C 90% RH) came to 0.16%; in data set [2] (3 weeks, 40 °C 70% RH), 0.13%; in data set [2] (3 weeks, 70 °C) it was 0.17%; in data set [2] (Starting sample), 0.15%. Also, the Water content in data set [2] (3 weeks, 25 °C 90% RH) was determined as 0.45% m/m%; in data set [2] (3 weeks, 40 °C 70% RH), 0.41% m/m%; in data set [2] (3 weeks, 70 °C), 0.42% m/m%; in data set [2] (Starting sample), 0.21% m/m%. Besides, the Unknown contaminant in data set [2] (setting [5]) was found to be 0.06%; in data set [2] (setting [6]) it was 0.06%; in data set [2] (RT 1.70 min, 3 weeks, 70 °C) it was 0.06%; in data set [2] (RT 1.70 min, Starting sample), 0.05%; in data set [2] (setting [7]), 0.10%; in data set [2] (setting [8]), 0.07%. Further, the Unknown contaminant is 0.11% in data set [2] (RT 2.56 min, 3 weeks, 70 °C) and 0.10% in data set [2] (RT 2.56 min, Starting sample). The “Known contaminant 2” value in data set [2] (3 weeks, 25 °C 90% RH) was determined as 0.06%; in data set [2] (3 weeks, 40 °C 70% RH), 0.06%; in data set [2] (3 weeks, 70 °C), 0.06%; in data set [2] (Starting sample), 0.05%. Besides, the “amount of "other unknown contaminants"” value in data set [2] (in words) is recorded as “remains unchanged”. In addition, the water absorption result in data set [2] (in words) was “significantly less water absorption”. Further, the “hygroscopicity” value in data set [1] is “does not exhibit significant hygroscopicity”.
In the case of `CC(=O)c1c(C)c2cnc(Nc3ccc(N4CCNCC4)cn3)nc2n(C2CCCC2)c1=O.Cl.Cl` [palbociclib di-HCI salt], the “amount of water absorbed” value in data set [3] is on record as above 2 m/m %. Further, the water solubility result in data set [4] is “suitable water solubility”.
Regarding palbociclib tosylate (1:1) salt, the Total contamination in data set [2] (3 weeks, 25 °C 90% RH) is 0.09%; in data set [2] (3 weeks, 40 °C 70% RH), 0.09%; in data set [2] (3 weeks, 70 °C), 0.10%; in data set [2] (Starting sample) it was 0.08%. For the same compound, the Total unknown contaminant in data set [2] (3 weeks, 25 °C 90% RH) turned out to be 0.09%; in data set [2] (3 weeks, 40 °C 70% RH), 0.09%; in data set [2] (3 weeks, 70 °C), 0.10%; in data set [2] (Starting sample), 0.08%. Also, the Water content in data set [2] (3 weeks, 25 °C 90% RH) came out at 0.51% m/m%; in data set [2] (3 weeks, 40 °C 70% RH) it was 0.49% m/m%; in data set [2] (3 weeks, 70 °C), 0.49% m/m%; in data set [2] (Starting sample), 0.34% m/m%. For the same compound, the Unknown contaminant in data set [2] (setting [5]) worked out at 0.04%; in data set [2] (setting [6]), 0.05%; in data set [2] (RT 1.70 min, 3 weeks, 70 °C), 0.05%; in data set [2] (RT 1.70 min, Starting sample), 0.04%; in data set [2] (setting [7]), 0.05%; in data set [2] (setting [8]), 0.04%. Moreover, the Unknown contaminant in data set [2] (RT 2.56 min, 3 weeks, 70 °C) stood at 0.05%; in data set [2] (RT 2.56 min, Starting sample), 0.04%. Moreover, the “amount of "other unknown contaminants"” value in data set [2] (in words) is reported as “remains unchanged”. The water absorption entry in data set [2] (in words) was “significantly less water absorption”. Besides, the “hygroscopicity” value in data set [1] (listed as palbociclib 4-toluenesulfonic acid (1:1) salt) was “does not exhibit significant hygroscopicity”; in data set [1] (listed as palbociclib tosylate salt form), “surprisingly low hygroscopicity”. For the same compound, the solubility (0.1 M HCl (pH=1), 37 °C, 1440 min) came out at 20000 µg/mL; the solubility result (pH 4.5 (slightly acidic), 37 °C, compared to reference palbociclib base Form A, in words) was “significantly better”; the solubility entry (pH 4.5 (slightly acidic), 37 °C, compared to reference palbociclib base Form A, in words, listed as palbociclib tosylate salt form) is reported as “significantly better solubility”; the solubility result (pH=1, 37 °C, compared to reference palbociclib base Form A, in words) is listed as “comparable”; the solubility (pH=4.5 phosphate buffer, 37 °C, 1440 min) is 200 µg/mL; the solubility (pH=6.8 phosphate buffer, 37 °C, 1440 min) was below 30 µg/mL.

The record behind these values is EP3368527B1, “PALBOCICLIB TOSYLATE” (Egis Gyógyszergyár Zrt., priority 2015, dated 2017).
